Experimental data from patent US20260256792A1, “TREATMENT OF CHRONIC SPONTANEOUS URTICARIA BY ADMINISTERING (R)-2-[3-[4-AMINO-3-(2-FLUORO-4-PHENOXY-PHENYL)PYRAZOLO[3,4-D]PYRIMIDIN-1-YL]PIPERIDINE-1-CARBONYL]-4-METHYL-4-[4-(OXETAN-3-YL)PIPERAZIN-1-YL]PENT-2-ENENITRILE” (priority 2023, published 2026).

Test system: moderate-to-severe chronic spontaneous urticaria (CSU)
Experiment: Phase 2 CSU study: hives severity score over 7 days (HSS7)
Format: in vivo, human
Design: key to HSS7 Change from baseline, Median / HSS7, Median / HSS7, Max / HSS7 Change from baseline, Q1 / HSS7 Change from baseline, Q3 / HSS7 Change from baseline, Max: 7-day sum of daily hive scores, each 0 = none to 3 = >50 hives
Excerpt: The study comprises a 12 week, randomized, double-blind, placebo-controlled, multi-center, dose-ranging efficacy and safety phase, followed by a 40 week open label extension (OLE) phase (see FIG. 1).
The study consists of three phases and an optional OLE phase.
The UAS is a validated PRO measure. The daily UAS is the sum of the daily Hive Severity Score (HSS, ranging from 0=None to 3=more than 50 hives) and the daily Itch Severity Score (ISS, ranging from 0=None to 3=intense), the 2 key urticaria signs and symptoms which are wheals and itch. The daily UAS scores range from 0 to 6 point/day. Daily UAS scores are summed over 7-day period to create the UAS7, ranging from 0 to 42, and are composed of the HSS7 and ISS7 components. […] Patients were to complete the UAS using the e-diary. The e-diary was to be used once daily on the same time of each day recording of participant's answers to the urticaria activity score over 7 days (UAS7) questionnaire. For participants who entered the OLE phase, their answers to the UAS7 questionnaire were also to be collected from Week 20 to Week24 and from Week 48 to Week 52.
The following secondary endpoints were to be analyzed using the same approach as for the primary endpoint: • Change from baseline in UAS7 at Week 4 • Change from baseline in UAS7 at Week 12 (for US and US reference countries) • Change from baseline in ISS7 at Week 12 (except US and US reference countries) • Change from baseline in HSS7 at Week 12

[1] = 400 mg BID, Week 11, ITT Population
[2] = 400 mg BID, Week 12, ITT population
[3] = 400 mg BID, Week 12, Omalizumab-Naïve Population
[4] = 400 mg QPM, Omalizumab-Naïve Population, last block under Week 12, double-blind period, WOCF imputation
[5] = 400 mg QPM, Week 1, ITT Population
[6] = 400 mg QPM, Week 1, Omalizumab-Naïve Population
[7] = 400 mg QPM, Week 2, ITT Population
[8] = 400 mg QPM, Week 2, Omalizumab-Naïve Population
[9] = 400 mg QPM, Week 3, ITT Population
[10] = 400 mg QPM, Week 3, Omalizumab-Naïve Population
[11] = 400 mg QPM, Week 4, ITT population
[12] = 400 mg QPM, Week 4, Omalizumab-Naïve Population
[13] = 400 mg QPM, Week 5, ITT Population
[14] = 400 mg QPM, Week 5, Omalizumab-Naïve Population
[15] = 400 mg QPM, Week 6, ITT Population
[16] = 400 mg QPM, Week 6, Omalizumab-Naïve Population
[17] = 400 mg QPM, Week 7, ITT Population
[18] = 400 mg QPM, Week 7, Omalizumab-Naïve Population
[19] = 400 mg QPM, Week 8, ITT population
[20] = 400 mg QPM, Week 8, Omalizumab-Naïve Population
[21] = 400 mg QPM, Week 9, ITT Population

## CC(C)(C=C(C#N)C(=O)N1CCC[C@@H](n2nc(-c3ccc(Oc4ccccc4)cc3F)c3c(N)ncnc32)C1)N1CCN(C2COC2)CC1 [rilzabrutinib, (R)-2-[3-[4-amino-3-(2-fluoro-4-phenoxy-phenyl)pyrazolo[3,4-d]pyrimidin-1-yl]piperidine-1-carbonyl]-4-methyl-4-[4-(oxetan-3-yl)piperazin-1-yl]pent-2-enenitrile]
[1]
  HSS7 % Change from baseline LS Mean (SE): −49.14 (7.06) %
  HSS7 Change difference for rilzabrutinib vs.placebo LS Mean (95% CI): −2.46 (−5.05, 0.13)
  HSS7 Change from baseline LS Mean (SE): −7.01 (0.99)
  HSS7 Postbaseline Mean (SD): 6.79 (7.06)
400 mg BID, Week 11, Omalizumab-Naïve Population
  HSS7 Postbaseline Mean (SD): 7.13 (7.07)
400 mg BID, Week 11, Omalizumab-Naïve Population with Outlier Removed from Analysis
  HSS7 Postbaseline Mean (SD): 7.13 (7.07)
[2]
  HSS7 % Change difference for rilzabrutinib vs.placebo LS Mean (95% CI): −19.13 %
  HSS7 % Change from baseline LS Mean (SE): −46.86 (7.34) %
  HSS7 Change difference for rilzabrutinib vs.placebo LS Mean (95% CI): −1.89 (−4.58, 0.80)
  HSS7 Change from baseline LS Mean (SE): −6.78 (1.02)
  HSS7 Postbaseline Mean (SD): 7.08 (7.32)
[3]
  HSS7 Change difference for rilzabrutinib vs.placebo LS Mean (95% CI): −2.12 (−4.97, 0.73)
  HSS7 Change from baseline LS Mean (SE): −6.52 (1.07)
  HSS7 Postbaseline Mean (SD): 7.52 (7.21)
400 mg BID, Week 12, Omalizumab-Naïve Population with Outlier Removed from Analysis
  HSS7 Postbaseline Mean (SD): 7.52 (7.21)
[4]
  HSS7, Max: 21.0
  HSS7, Min: 0.0
  HSS7 Change from baseline, Max: 1.5
  HSS7 Change from baseline, Mean (SD): −9.87 (8.34)
  HSS7 Change from baseline, Median: −12.00
  HSS7 Change from baseline, Min: −19.6
  HSS7 Change from baseline, Q1: −18.00
  HSS7 Change from baseline, Q3: 0.00
  HSS7 Percent change from baseline, Max: 9.4%
  HSS7 Percent change from baseline, Mean (SD): −64.85 (48.75) percent
  HSS7 Percent change from baseline, Median: −93.33%
  HSS7 Percent change from baseline, Q1: −100.00%
  HSS7 Percent change from baseline, Q3: 0.00%
[5]
  HSS7 % Change difference for rilzabrutinib vs.placebo LS Mean (95% CI): −16.53 %
  HSS7 % Change from baseline LS Mean (SE): −25.22 (5.61) %
  HSS7 Change difference for rilzabrutinib vs.placebo LS Mean (95% CI): −2.14 (−4.59, 0.31)
  HSS7 Change from baseline LS Mean (SE): −3.98 (0.76)
  HSS7 Postbaseline Mean (SD): 10.76 (4.83)
[6]
  HSS7 % Change difference for rilzabrutinib vs.placebo LS Mean (95% CI): −17.05 %
  HSS7 % Change from baseline LS Mean (SE): −24.49 (5.76) %
  HSS7 Change difference for rilzabrutinib vs.placebo LS Mean (95% CI): −2.16 (−4.69, 0.37)
  HSS7 Change from baseline LS Mean (SE): −3.79 (0.77)
  HSS7 Postbaseline Mean (SD): 10.73 (4.90)
400 mg QPM, Week 1, Omalizumab-Naïve Population with Outlier Removed from Analysis
  HSS7 Postbaseline Mean (SD): 10.73 (4.90)
[7]
  HSS7 % Change difference for rilzabrutinib vs.placebo LS Mean (95% CI): −7.67 (−23.03, 7.68) %
  HSS7 % Change from baseline LS Mean (SE): −24.23 (5.75) %
  HSS7 Change difference for rilzabrutinib vs.placebo LS Mean (95% CI): −0.95 (−3.07, 1.17)
  HSS7 Change from baseline LS Mean (SE): −3.87 (0.80)
  HSS7 Postbaseline Mean (SD): 10.96 (4.91)
[8]
  HSS7 % Change difference for rilzabrutinib vs.placebo LS Mean (95% CI): −8.35 (−24.24, 7.54) %
  HSS7 % Change from baseline LS Mean (SE): −23.62 (5.84) %
  HSS7 Postbaseline Mean (SD): 10.90 (4.97)
400 mg QPM, Week 2, Omalizumab-Naïve Population with Outlier Removed from Analysis
  HSS7 Postbaseline Mean (SD): 10.90 (4.97)
[9]
  HSS7 % Change difference for rilzabrutinib vs.placebo LS Mean (95% CI): −9.55 (−25.43, 6.33) %
  HSS7 % Change from baseline LS Mean (SE): −28.70 (5.96) %
  HSS7 Change difference for rilzabrutinib vs.placebo LS Mean (95% CI): −0.94 (−3.15, 1.28)
  HSS7 Change from baseline LS Mean (SE): −4.44 (0.83)
  HSS7 Postbaseline Mean (SD): 10.40 (4.90)
[10]
  HSS7 % Change difference for rilzabrutinib vs.placebo LS Mean (95% CI): −10.40 %
  HSS7 % Change from baseline LS Mean (SE): −28.10 (6.12) %
  HSS7 Postbaseline Mean (SD): 10.41 (4.97)
400 mg QPM, Week 3, Omalizumab-Naïve Population with Outlier Removed from Analysis
  HSS7 Postbaseline Mean (SD): 10.41 (4.97)
[11]
  HSS7 % Change difference for rilzabrutinib vs.placebo LS Mean (95% CI): −7.88 (−24.05, 8.29) %
  HSS7 % Change from baseline LS Mean (SE): −26.58 (6.02) %
  HSS7 Change difference for rilzabrutinib vs.placebo LS Mean (95% CI): −0.78 (−3.03, 1.46)
  HSS7 Change from baseline LS Mean (SE): −4.23 (0.84)
[12]
  HSS7 % Change difference for rilzabrutinib vs.placebo LS Mean (95% CI): −10.20 %
  HSS7 % Change from baseline LS Mean (SE): −26.07 (6.19) %
[13]
  HSS7 % Change difference for rilzabrutinib vs.placebo LS Mean (95% CI): −2.80 %
  HSS7 % Change from baseline LS Mean (SE): −31.95 (5.91) %
  HSS7 Change difference for rilzabrutinib vs.placebo LS Mean (95% CI): −0.33 (−2.64, 1.97)
  HSS7 Change from baseline LS Mean (SE): −4.97 (0.86)
  HSS7 Postbaseline Mean (SD): 9.59 (5.07)
[14]
  HSS7 % Change difference for rilzabrutinib vs.placebo LS Mean (95% CI): −0.56 %
  HSS7 % Change from baseline LS Mean (SE): −31.12 (6.01) %
  HSS7 Postbaseline Mean (SD): 9.63 (5.13)
400 mg QPM, Week 5, Omalizumab-Naïve Population with Outlier Removed from Analysis
  HSS7 Postbaseline Mean (SD): 9.63 (5.13)
[15]
  HSS7 % Change difference for rilzabrutinib vs.placebo LS Mean (95% CI): −7.12 %
  HSS7 % Change from baseline LS Mean (SE): −31.19 (6.73) %
  HSS7 Change difference for rilzabrutinib vs.placebo LS Mean (95% CI): −0.50 (−3.00, 2.00)
  HSS7 Change from baseline LS Mean (SE): −4.76 (0.93)
  HSS7 Postbaseline Mean (SD): 9.89 (5.69)
[16]
  HSS7 % Change difference for rilzabrutinib vs.placebo LS Mean (95% CI): −6.27 %
  HSS7 % Change from baseline LS Mean (SE): −30.30 (6.90) %
  HSS7 Postbaseline Mean (SD): 9.94 (5.76)
400 mg QPM, Week 6, Omalizumab-Naïve Population with Outlier Removed from Analysis
  HSS7 Postbaseline Mean (SD): 9.94 (5.76)
[17]
  HSS7 % Change difference for rilzabrutinib vs.placebo LS Mean (95% CI): −5.92 %
  HSS7 % Change from baseline LS Mean (SE): −29.88 (6.15) %
  HSS7 Change difference for rilzabrutinib vs.placebo LS Mean (95% CI): −0.53 (−2.87, 1.81)
  HSS7 Change from baseline LS Mean (SE): −4.61 (0.88)
  HSS7 Postbaseline Mean (SD): 10.38 (5.19)
[18]
  HSS7 % Change difference for rilzabrutinib vs.placebo LS Mean (95% CI): −3.82 %
  HSS7 % Change from baseline LS Mean (SE): −29.51 (6.35) %
  HSS7 Postbaseline Mean (SD): 10.43 (5.27)
400 mg QPM, Week 7, Omalizumab-Naïve Population with Outlier Removed from Analysis
  HSS7 Postbaseline Mean (SD): 10.43 (5.27)
[19]
  HSS7 % Change difference for rilzabrutinib vs.placebo LS Mean (95% CI): −1.88 %
  HSS7 % Change from baseline LS Mean (SE): −30.95 (6.43) %
  HSS7 Change difference for rilzabrutinib vs.placebo LS Mean (95% CI): 0.11 (−2.37, 2.59)
  HSS7 Change from baseline LS Mean (SE): −4.64 (0.93)
  HSS7 Postbaseline Mean (SD): 10.43 (5.63)
[20]
  HSS7 % Change difference for rilzabrutinib vs.placebo LS Mean (95% CI): −2.41 %
  HSS7 % Change from baseline LS Mean (SE): −30.42 (6.75) %
[21]
  HSS7 % Change difference for rilzabrutinib vs.placebo LS Mean (95% CI): −10.31 %
  HSS7 % Change from baseline LS Mean (SE): −34.23 (6.69) %
  HSS7 Change difference for rilzabrutinib vs.placebo LS Mean (95% CI): −0.94 (−3.47, 1.59)
  HSS7 Change from baseline LS Mean (SE): −5.06 (0.95)
  HSS7 Postbaseline Mean (SD): 9.77 (5.51)
400 mg QPM, Week 9, Omalizumab-Naïve Population
  HSS7 Postbaseline Mean (SD): 9.82 (5.59)
400 mg QPM, Week 9, Omalizumab-Naïve Population with Outlier Removed from Analysis
  HSS7 Postbaseline Mean (SD): 9.82 (5.59)
